For one data set, the target named is T1, Cytochrome P450 1A2 (Homo sapiens, UniProt P05177).
T1 sequence (P05177 whole entry): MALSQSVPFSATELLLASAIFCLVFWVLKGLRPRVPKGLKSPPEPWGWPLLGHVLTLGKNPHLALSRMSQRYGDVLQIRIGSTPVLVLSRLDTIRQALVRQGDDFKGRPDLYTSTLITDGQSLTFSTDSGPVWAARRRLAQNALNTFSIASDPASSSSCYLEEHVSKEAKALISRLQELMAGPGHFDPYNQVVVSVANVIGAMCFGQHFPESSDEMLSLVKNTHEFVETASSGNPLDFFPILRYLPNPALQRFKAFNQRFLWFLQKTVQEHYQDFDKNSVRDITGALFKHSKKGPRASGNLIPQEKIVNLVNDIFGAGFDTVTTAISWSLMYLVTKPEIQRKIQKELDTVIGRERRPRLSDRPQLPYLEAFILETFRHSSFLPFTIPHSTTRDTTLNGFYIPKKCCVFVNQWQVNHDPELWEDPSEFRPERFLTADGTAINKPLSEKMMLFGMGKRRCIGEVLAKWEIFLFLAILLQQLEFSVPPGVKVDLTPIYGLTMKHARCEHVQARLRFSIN
The data set can be described thus: Inhibition of CYP1A2 (unknown origin). Format: ADME.

In another data set the test system is Mus musculus. The data set can be described thus: In vivo inhibition of ACSL1 in mouse assessed as reduction in acyl-coA production in liver administered orally using palmitic acid as substrate and measured after 17 hrs. It is filed as functional, organism-based. As to conditions: dose 0.3-1 mg/kg.
Data set [1] has as its target T2, Long-chain-fatty-acid--CoA ligase 6 (Homo sapiens, UniProt Q9UKU0).
T2 sequence (Q9UKU0 whole entry): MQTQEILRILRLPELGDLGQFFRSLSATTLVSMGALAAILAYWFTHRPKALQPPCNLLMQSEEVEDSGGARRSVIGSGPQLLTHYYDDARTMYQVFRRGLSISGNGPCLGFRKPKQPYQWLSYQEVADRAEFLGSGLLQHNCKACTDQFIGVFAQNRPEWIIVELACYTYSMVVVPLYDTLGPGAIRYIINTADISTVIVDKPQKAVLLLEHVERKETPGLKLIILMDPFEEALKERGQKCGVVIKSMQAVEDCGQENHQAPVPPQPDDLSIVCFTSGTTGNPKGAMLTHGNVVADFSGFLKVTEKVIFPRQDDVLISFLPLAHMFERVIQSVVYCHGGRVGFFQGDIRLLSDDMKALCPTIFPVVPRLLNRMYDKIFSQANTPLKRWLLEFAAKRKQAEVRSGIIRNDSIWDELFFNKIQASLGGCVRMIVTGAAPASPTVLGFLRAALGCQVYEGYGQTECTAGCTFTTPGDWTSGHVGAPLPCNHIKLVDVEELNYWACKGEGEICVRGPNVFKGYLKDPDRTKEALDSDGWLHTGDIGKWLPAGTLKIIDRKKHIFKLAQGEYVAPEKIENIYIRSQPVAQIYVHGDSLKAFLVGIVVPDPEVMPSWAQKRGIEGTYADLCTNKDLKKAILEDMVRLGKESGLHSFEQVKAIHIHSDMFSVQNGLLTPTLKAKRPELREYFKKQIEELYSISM
The data set can be described thus: Inhibition of recombinant human ACSL6 assessed as reduction in […] prodution incubated for 60 mins in presence of Coenzyme A, ATP and MgCl2 by MALDI-TOF MS analysis.

A short description of data set [2]: Solubility of compound in pH 6.8. Format: physicochemical. Conditions: buffer.
The next data set concerns the target Cytochrome P450 2C9 (Homo sapiens, UniProt P11712). The data set can be described thus: Inhibition of CYP2C9 (unknown origin). It is filed as ADME.
The nature of data set [3]: Cmax in rat at 1 mg/kg, po. Format: ADME, organism-based. Set-up: route oral, dose 1 mg/kg. Conditions: in vivo.
Data set [4] can be described thus: Solubility of compound in pH 1.2. Format: physicochemical. Conditions: buffer.
The nature of data set [5]: Solubility of compound in pH 6.8 with TCA. It is filed as physicochemical.
For the next data set, the target named is Cytochrome P450 2C19 (Homo sapiens, UniProt P33261). Put plainly: Inhibition of CYP2C19 (unknown origin). It is filed as ADME.
The nature of data set [6]: Fraction unbound in rat plasma. It is filed as ADME, cell-free.
The target of data set [7] is T3, Long-chain-fatty-acid--CoA ligase 1 (Mus musculus, UniProt P41216).
T3 sequence (P41216 whole entry): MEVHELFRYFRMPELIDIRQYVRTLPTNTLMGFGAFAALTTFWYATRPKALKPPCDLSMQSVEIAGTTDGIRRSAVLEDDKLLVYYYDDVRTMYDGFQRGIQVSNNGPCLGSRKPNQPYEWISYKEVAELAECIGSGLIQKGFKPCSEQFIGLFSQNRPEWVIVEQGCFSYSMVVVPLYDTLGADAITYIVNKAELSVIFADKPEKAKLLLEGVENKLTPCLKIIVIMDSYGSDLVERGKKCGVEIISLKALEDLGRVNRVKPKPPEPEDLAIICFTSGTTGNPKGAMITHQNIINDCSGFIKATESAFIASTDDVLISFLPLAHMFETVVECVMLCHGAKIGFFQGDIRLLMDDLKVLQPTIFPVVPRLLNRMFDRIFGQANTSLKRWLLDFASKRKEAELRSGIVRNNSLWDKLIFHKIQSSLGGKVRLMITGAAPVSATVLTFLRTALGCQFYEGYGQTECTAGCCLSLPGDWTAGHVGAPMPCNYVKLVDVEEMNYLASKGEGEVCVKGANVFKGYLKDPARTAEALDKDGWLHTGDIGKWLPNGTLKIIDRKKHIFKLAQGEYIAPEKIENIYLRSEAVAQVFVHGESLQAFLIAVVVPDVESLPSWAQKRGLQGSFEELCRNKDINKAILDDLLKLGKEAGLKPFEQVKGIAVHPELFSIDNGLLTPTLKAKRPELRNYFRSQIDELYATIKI
Put plainly: Inhibition of recombinant mouse ACSL1 assessed as reduction in […] prodution incubated for 90 mins in presence of Coenzyme A, ATP and MgCl2 by MALDI-TOF MS analysis.

Data set [8] can be described thus: Tmax in rat at 1 mg/kg, po. Format: ADME, organism-based. Conditions: in vivo.
A short description of data set [9]: Volume of distribution at steady state in rat at 0.5 mg/kg, iv. It is filed as ADME, organism-based. Conditions: in vivo, read-out: Vdss.

Converted amounts (≈) assume the structure as drawn.

Sequence of Cytochrome P450 2C9 (P11712 whole entry): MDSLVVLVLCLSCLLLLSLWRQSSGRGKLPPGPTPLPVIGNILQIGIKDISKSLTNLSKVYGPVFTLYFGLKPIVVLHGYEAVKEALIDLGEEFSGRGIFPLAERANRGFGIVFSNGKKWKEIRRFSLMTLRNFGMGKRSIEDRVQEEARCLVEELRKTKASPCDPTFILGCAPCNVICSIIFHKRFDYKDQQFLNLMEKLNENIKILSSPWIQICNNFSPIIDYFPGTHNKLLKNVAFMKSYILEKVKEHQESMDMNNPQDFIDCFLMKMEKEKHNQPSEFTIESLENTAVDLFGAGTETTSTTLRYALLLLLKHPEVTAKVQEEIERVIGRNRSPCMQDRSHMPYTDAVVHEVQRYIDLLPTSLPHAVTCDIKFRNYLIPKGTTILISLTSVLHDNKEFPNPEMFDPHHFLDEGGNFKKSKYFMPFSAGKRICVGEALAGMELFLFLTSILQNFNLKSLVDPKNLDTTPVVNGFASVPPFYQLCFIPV
Sequence of Cytochrome P450 2C19 (P33261 whole entry): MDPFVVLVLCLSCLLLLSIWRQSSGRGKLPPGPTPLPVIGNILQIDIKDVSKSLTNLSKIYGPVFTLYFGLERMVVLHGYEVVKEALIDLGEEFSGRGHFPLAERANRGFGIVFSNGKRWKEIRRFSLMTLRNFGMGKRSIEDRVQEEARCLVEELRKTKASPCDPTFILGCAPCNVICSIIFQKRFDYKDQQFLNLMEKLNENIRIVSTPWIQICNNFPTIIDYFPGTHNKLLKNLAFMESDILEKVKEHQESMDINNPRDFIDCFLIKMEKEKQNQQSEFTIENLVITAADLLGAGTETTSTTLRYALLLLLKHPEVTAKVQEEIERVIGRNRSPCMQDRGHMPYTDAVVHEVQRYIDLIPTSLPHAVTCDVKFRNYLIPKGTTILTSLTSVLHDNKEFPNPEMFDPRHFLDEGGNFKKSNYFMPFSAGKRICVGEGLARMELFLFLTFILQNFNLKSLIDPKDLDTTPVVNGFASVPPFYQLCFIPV

By IC50 is commonly meant the point on the concentration scale where inhibition reaches its midpoint. Broadly, the solubility is the concentration that dissolves in the medium under given conditions. A low value points to a poorly soluble substance. Broadly, the Cmax is the maximum level reached in the sampled fluid or tissue. As a reminder, the fraction unbound is free concentration divided by total concentration. Low values mean extensive binding, high ones weak binding. Usually Tmax stands for the time at which the peak concentration occurs. With `Cc1cccc(Cc2nc3cc(O[C@H]4CC[C@@H](C(=O)O)CC4)ccc3n2C)c1`, the IC50 is above 20 µM against Cytochrome P450 1A2; above 200 µM in data set [1]; above 20 µM at Cytochrome P450 2C9; above 20 µM against Cytochrome P450 2C19; 0.03 µM in data set [7]. The inhibition entry with Mus musculus is “Dose-dependent effect”. In addition, the results for the solubility in data set [2], in data set [4] and in data set [5] were 8.6 µg/mL (≈ 22.7 µM), 307 µg/mL (≈ 811 µM) and 24 µg/mL (≈ 63.4 µM), respectively. In addition, in data set [3], the concentration peaked (Cmax) at 1110 ng/mL. Further, the unbound share (fraction unbound) in [6] turned out to be 0.017. The Tmax in data set [8] was 2.5 h. Besides, in [9], the Vd was found to be 0.38 L/kg.

Values taken from ChEMBL document CHEMBL4673346, “Discovery of a benzimidazole series as the first highly potent and selective ACSL1 inhibitors” (Bioorg Med Chem Lett, 2021).
